# Results: patent publication US20140073651A1, “BENZAMIDE DERIVATIVES AS P2X7 RECEPTOR ANTAGONISTS” (Actelion Pharmaceuticals Ltd., priority 2011, published 2014)
# Target: T1, human recombinant P2X7 receptor (Homo sapiens, UniProt Q99572)
# T1 construct: expressed in transfected cells
# T1 sequence (Q99572 1-595): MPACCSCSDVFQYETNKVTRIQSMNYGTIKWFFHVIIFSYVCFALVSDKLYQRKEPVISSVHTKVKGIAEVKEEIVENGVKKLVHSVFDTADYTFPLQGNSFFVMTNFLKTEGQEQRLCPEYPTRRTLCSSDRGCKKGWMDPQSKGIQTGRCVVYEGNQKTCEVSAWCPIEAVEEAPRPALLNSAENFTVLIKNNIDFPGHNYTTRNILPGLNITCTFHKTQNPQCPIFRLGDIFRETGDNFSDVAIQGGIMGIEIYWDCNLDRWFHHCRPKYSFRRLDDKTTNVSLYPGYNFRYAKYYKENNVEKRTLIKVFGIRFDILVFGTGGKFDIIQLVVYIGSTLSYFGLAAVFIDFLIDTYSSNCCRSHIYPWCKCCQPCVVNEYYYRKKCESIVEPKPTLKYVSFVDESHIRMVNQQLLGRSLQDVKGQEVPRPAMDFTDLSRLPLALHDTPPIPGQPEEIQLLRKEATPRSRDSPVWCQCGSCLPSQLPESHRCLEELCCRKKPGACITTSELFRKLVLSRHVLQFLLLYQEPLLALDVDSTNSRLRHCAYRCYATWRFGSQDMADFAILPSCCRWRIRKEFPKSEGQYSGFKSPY
# Experiment: YO-PRO assay (YO-PRO-1 uptake) in HEK cells stably expressing P2X7
# Type: cell-based
# Conditions: HEK-293 cells expressing human recombinant P2X7 receptor; ATP 250 μM, 90 minutes; YO-PRO-1 fluorescence (FLIPR tetra); read-out: IC50 (antagonistic activity with respect to the P2X7 receptor)
# Procedure, shortened: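 Antagonist serially diluted (duplicates) on P2X7-expressing HEK cells in buffer with 0.5 μM YO-PRO-1; dye uptake followed on FLIPR Tetra over four time points. IC50 from maximum fluorescence intensity versus compound concentration.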
row,SMILES,IC50
1,"CSc1nccc(Cc2ccc(Cl)c(C(=O)NCC3(O)CCCCC3)c2)n1 [Example 146, 2-Chloro-N-(1-hydroxy-cyclohexylmethyl)-5-(2-methylsulfanyl-pyrimidin-4-ylmethyl)-benzamide]",0.4 µM
2,"O=C(NCC1(O)CCCCC1)c1cc(Cc2cc[nH]c(=O)n2)ccc1Cl [Example 147, 2-Chloro-N-(1-hydroxy-cyclohexylmethyl)-5-(2-oxo-1,2-dihydro-pyrimidin-4-ylmethyl)-benzamide]",0.123 µM
3,"COc1nccc(Cc2ccc(Cl)c(C(=O)NCC3(O)CCCCC3)c2)n1 [Example 148, 2-Chloro-N-(1-hydroxy-cyclohexylmethyl)-5-(2-methoxy-pyrimidin-4-ylmethyl)-benzamide]",0.343 µM
4,"O=C(NCC1(O)CCC(F)(F)CC1)c1cc(Cc2cc[nH]c(=O)n2)ccc1Cl [Example 149, 2-Chloro-N-(4,4-difluoro-1-hydroxy-cyclohexylmethyl)-5-(2-oxo-1,2-dihydro-pyrimidin-4-ylmethyl)-benzamide]",0.033 µM
5,"O=C(NCC1(O)CCCCC1)c1cc(C(F)(F)c2cc[nH]c(=O)n2)ccc1Cl [Example 151, 2-Chloro-5-[difluoro-(2-oxo-1,2-dihydro-pyrimidin-4-yl)-methyl]-N-(1-hydroxy-cyclohexylmethyl)-benzamide]",0.031 µM
6,"Cc1ccc(N(C)c2cc[nH]c(=O)n2)cc1C(=O)NCC1(O)CCCCC1 [Example 155, N-(1-Hydroxy-cyclohexylmethyl)-2-methyl-5-[methyl-(2-oxo-1,2-dihydro-pyrimidin-4-yl)-amino]-benzamide]",0.199 µM

# More lines, in order of falling IC50, values ahead:
row,IC50,SMILES
1,0.702 µM,"Cc1ccc(N(C)c2ccnc(Cl)n2)cc1C(=O)NCC1(O)CCCCC1 [Example 153, 5-[(2-Chloro-pyrimidin-4-yl)-methyl-amino]-N-(1-hydroxy-cyclohexylmethyl)-2-methyl-benzamide]"
2,0.629 µM,"COc1nccc(N(C)c2ccc(C)c(C(=O)NCC3(O)CCCCC3)c2)n1 [Example 154, N-(1-Hydroxy-cyclohexylmethyl)-5-[(2-methoxy-pyrimidin-4-yl)-methyl-amino]-2-methyl-benzamide]"
3,0.077 µM,"O=C(c1ccc(Cl)c(C(=O)NCC2(O)CCCCC2)c1)c1cc[nH]c(=O)n1 [Example 150, 2-Chloro-N-(1-hydroxy-cyclohexylmethyl)-5-(2-oxo-1,2-dihydro-pyrimidine-4-carbonyl)-benzamide]"
